Laboratory results reported in PMC12442245, “Activity Analysis of the P2X Receptor Antagonist PPADS against Signal Transducer and Activator of Transcription Proteins” (Chembiochem, 2025).

Target: T1, STAT5b (Homo sapiens, UniProt P51692)
T1 sequence (P51692 1-787): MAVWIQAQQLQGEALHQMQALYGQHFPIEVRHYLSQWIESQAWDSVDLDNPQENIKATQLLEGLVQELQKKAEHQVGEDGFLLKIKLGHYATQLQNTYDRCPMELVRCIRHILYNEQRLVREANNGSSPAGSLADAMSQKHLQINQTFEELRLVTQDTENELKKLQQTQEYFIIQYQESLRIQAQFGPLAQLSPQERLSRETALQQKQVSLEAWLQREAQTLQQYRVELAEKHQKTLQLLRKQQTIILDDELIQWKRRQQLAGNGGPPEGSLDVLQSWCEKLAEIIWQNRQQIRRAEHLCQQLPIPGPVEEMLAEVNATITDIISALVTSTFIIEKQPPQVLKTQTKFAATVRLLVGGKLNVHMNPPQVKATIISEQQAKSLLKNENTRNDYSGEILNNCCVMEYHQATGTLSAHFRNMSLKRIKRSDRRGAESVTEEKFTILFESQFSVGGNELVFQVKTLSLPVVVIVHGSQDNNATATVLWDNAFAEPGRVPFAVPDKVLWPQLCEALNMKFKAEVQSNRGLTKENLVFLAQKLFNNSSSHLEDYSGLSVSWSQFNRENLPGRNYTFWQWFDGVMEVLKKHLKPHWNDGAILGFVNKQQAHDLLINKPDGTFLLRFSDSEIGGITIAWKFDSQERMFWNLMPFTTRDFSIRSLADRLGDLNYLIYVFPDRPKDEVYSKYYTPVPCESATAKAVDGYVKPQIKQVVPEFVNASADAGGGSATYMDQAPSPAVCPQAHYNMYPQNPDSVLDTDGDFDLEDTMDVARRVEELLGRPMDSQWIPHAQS
Test: HTRF assay, STAT5b
Type: binding
Conditions: STAT5b 80 nM, without reducing agent, 1 h
Text: The azo dyes PPADS and iso‐PPADS have a deep red color in aqueous solution. […] In order to exclude this possibility, we established homogeneous time‐resolved fluorescence resonance energy transfer (HTRF) assays to confirm the degree of binding between STAT4, STAT5a, and STAT5b and the respective 5‐carboxyfluorescein‐labeled binding peptides used in the FP assay. In addition, an HTRF assay was established for STAT3, one of the STAT proteins targeted to a lesser extent in FP assays, as a specificity control (Figure 1B,C). The STAT protein constructs each contain a 6x‐His‐tag.^[ [15], [16], [17], [22] ^] A Tb^3+‐cryptate fused to an anti‐6x‐His antibody was chosen as the long‐lived fluorescent donor, while the carboxyfluorescein linked to the respective STAT‐binding peptides served as the acceptor (Figure 2A). Emission was measured with a time delay of 60 μs after excitation, allowing any initial compound fluorescence to decay beforehand. […]
Screening of chemical libraries comprising approximately 5000 known bioactive compounds in fluorescence polarization-based assays against phosphorylation-dependent protein-protein interaction domains, including STAT proteins, has been described.[1] […]
Fluorescence polarization assays
Competitive fluorescence polarization (FP) assays for STAT1,[2] […] Briefly, peptide binding to proteins was analyzed using the following carboxyfluorescein (CF) -labelled pepti des at a concentration of 10 nM: STAT1: 5-CF-GpYDKPHVL-OH, STAT3: 5-CF-GpYLPQTV -NH2, STAT4: 5-CF-GpYLPQNID-OH, STAT5a and STAT5b: 5-CF-GpYLVLDKW-OH, STAT6: 5- […]
CFGp[…]-OH. […] FP was measured using an Infinite F500 plate reader (Tecan) and measurements were converted into percent inhibition according to the binding curve equation. Curves were plotted and best fits calculated using OriginPro […]
Homogenous time-resolved fluorescence (HTRF) assays for STAT3, STAT4, STAT5a and STAT5b were carried out using Cisbio Monoclonal Antibody Anti-6His-Tb Gold as the fluorescence donor (Perkin Elmer) and the corresponding CF-labelled binding peptide as the acceptor. […] The average reading from 3 wells was obtained. […]

Row | SMILES | IC50
1 | Cc1nc(/N=N/c2ccc(S(=O)(=O)O)cc2S(=O)(=O)O)c(COP(=O)(O)O)c(C=O)c1O [PPADS, pyridoxalphosphate‐6‐azophenyl‐2',4'‐disulfonic acid] | 1220 ± 270 nM
2 | Cc1nc(/N=N/c2cc(S(=O)(=O)O)ccc2S(=O)(=O)O)c(COP(=O)(O)O)c(C=O)c1O [iso‐PPADS] | 800 ± 100 nM
